Earlier results, collected in US20020137779A1, “Use of L-2-oxothiazolidine-4-carboxylic acid for the treatment of type 2 diabetes” (Advanced Biochemicals Inc., priority 2001, published 2002).

System: mice
Details: oral administration at 9.5 mmol/kg in mice; cited from earlier work

In the case of `CC(=O)Nc1ccc(O)cc1` [acetaminophen, reference compound], the mortality is listed as “more than 90%”.
